# Tested on: serum fucosylated PSA
# Experiment: Sandwich ELISA, anti-PSA antibody and biotin-labeled lectin
# Format: binding, human
# Conditions: for Δ (=A − B): reaction value of Prostate cancer 4 minus Healthy 1; for lectin reaction value B of Healthy 1: serum of Healthy 1; for lectin reaction value A of Prostate cancer 4: serum of Prostate cancer 4, GS 6 (3 + 3)
# Description: The anti-PSA antibody from which sugar chains had been removed was diluted to 5 μg/mL with PBS. 25 μL of this diluted solution was added to each well of an ELISA plate and allowed to stand at 37° C. for 12 hours, and then the additive solution was discarded.
# 150 μL of PBS containing 0.05% Tween 20 (product name: polyoxyethylene sorbitan monolaurate, from Nacalai Tesque, Inc.) was added to each well, and then the additive solution was discarded. This manipulation was repeated three times in total.
# 25 μL of 1% BSA/PBS was added to each well and allowed to stand at 37° C. for 1 hour, and then the additive solution was discarded.
# 150 μL of PBS containing 0.05% Tween 20 was added to each well, and then the additive solution was discarded. This manipulation was repeated three times in total.
# To graph a calibration curve, 25 μL of the fucosylated PSA reference standard diluted with 1% BSA/PBS to a concentration of 0 to 200 ng/mL was added to each well and allowed to stand at room temperature for 1 hour, and then the additive solution was discarded. In addition, to detect the fucosylated PSA in the serum of the subject by the lectin, 25 μL of serum of “Healthy 1” and “Prostate cancer 4” 2-fold diluted with PBS was added to each well and allowed to stand at room temperature for 1 hour, and then the additive solution was discarded.
# In Reference Example 1, 25 μL of a biotin-labeled PhoSL diluted to 0.1 μg/mL with 0.1% BSA/PBS (pH 7.4) was added to each well and allowed to stand at 4° C. for 30 minutes, and then the additive solution was discarded. In Example 1, 25 μL of a biotin-labeled PhoSL diluted to 0.1 μg/mL with 0.1% BSA/10-fold diluted PBS+glycine-NaOH (pH 9.6) was added to each well and allowed to stand at 4° C. for 30 minutes, and then the additive solution was discarded.
# 25 μL of a horseradish peroxidase (HRP)-labeled streptavidin solution (from Vector Laboratories, Inc., concentration: 0.4 μg/mL, in 1% BSA/PBS) was added to each well and allowed to stand at room temperature for 30 minutes, and then the additive solution was discarded.
# 25 μL of chromogenic substrate for HRP (product name: TMB, from Kirkegaard & Perry Laboratories, Inc.) was added to each well and allowed to stand at room temperature for 10 minutes.
# 25 μL of 1M phosphoric acid was added to terminate the reaction.
# Absorbance (Ab) at 450 nm and 630 nm was measured using a plate reader, and a measurement (Ab450-630) was obtained.
# A calibration curve was graphed by plotting signals (reaction values, Ab450-630) of the fucosylated PSA reference standard with the biotin-labeled PhoSL. A Signal (Ab450-630) of the biotin-labeled PhoSL corresponding to the fucosylated PSA concentration of 10 ng/mL was defined as 10 U/mL.
# The signals of biotin-labeled PhoSL (Ab450-630) for the serum fucosylated PSA in the subject samples A were assigned to the calibration curve to calculate reaction values (unit: U/mL).
# The PhoSL reaction values for the subject samples A were measured by the same operation as in Example 1. From the PhoSL reaction values, an average value and a median value were determined. Furthermore, a standard cutoff value (89.7 U/mL) was used to determine a detection rate (positive rate) of the prostate cancer patients, and a false detection rate (false positive rate) of the healthy persons.
# Comparative Example 2 in Table 9 indicates results of detecting the serum fucosylated PSA using AAL (AAL reaction values) in the subject samples A. Specifically, in Reference Example 1, AAL reaction values were measured in the same manner as in Reference Example 1 except that the biotin-labeled PhoSL was replaced with a biotin-labeled AAL. A standard cut-off value for the AAL reaction values was 894.8 U/mL. As in Example 2, an average value, a median value, a positive rate and a false positive rate were determined from the AAL reaction values.
substance,measurement,setting,value
"PhoSL peptide: synthesized Pholiota squarrosa lectin peptide, SEQ ID No. 6 (Lys substitutions at 1, 20, 39; 40th Gly deleted) (KPVPVTKLVCDGDTYKCTAKLDFGDGRWVAQWDTNVFHK; Modification of SEQ ID(1) in which Ala at position 1, Tyr at position 20 and Thr at position 39 are substituted with Lys, and Gly at position 40 is deleted.)",Δ (=A − B),pH in lectin reaction 7.4,100.5 U/mL
same,Δ (=A − B),pH in lectin reaction 9.6,234.4 U/mL
same,lectin reaction value B of Healthy 1,pH in lectin reaction 7.4,1.0 U/mL
same,lectin reaction value B of Healthy 1,pH in lectin reaction 9.6,Below detection limit
same,lectin reaction value A of Prostate cancer 4,pH in lectin reaction 7.4,101.5 U/mL
same,lectin reaction value A of Prostate cancer 4,pH in lectin reaction 9.6,234.4 U/mL
